Assay results taken from patent publication US20200361871A1 (Enterprise Therapeutics Ltd., priority 2018, published 2020).

Target: human TMEM16A (TMEM16Aabc variant) (Homo sapiens, UniProt Q5XXA6, DEL476-501, form not given)
Experiment: Automated whole-cell patch clamp (Qpatch) TMEM16A potentiator assay in FRT cells stably expressing human TMEM16A
Assay type: cell-based
Conditions: for % Potentiation @ 3.33 μM Avg: 3.33 μM solution of test compound, percentage increase of baseline TMEM16A current; for EC50: calculated EC50, Qpatch TMEM16A current at +70 mV
Outline: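 FRT cells stably expressing human TMEM16Aabc were recorded by automated whole-cell patch clamp, with intracellular Ca2+ buffered for ~EC20 activation, holding −70 mV and step to +70 mV at 0.05 Hz. Compound was applied cumulatively, 5 min per concentration. Peak current increase as % of baseline was fitted to give EC50 and maximum efficacy.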

human TMEM16A (TMEM16Aabc variant), sequence (Q5XXA6 with tags, fused parts or gaps DEL476-501): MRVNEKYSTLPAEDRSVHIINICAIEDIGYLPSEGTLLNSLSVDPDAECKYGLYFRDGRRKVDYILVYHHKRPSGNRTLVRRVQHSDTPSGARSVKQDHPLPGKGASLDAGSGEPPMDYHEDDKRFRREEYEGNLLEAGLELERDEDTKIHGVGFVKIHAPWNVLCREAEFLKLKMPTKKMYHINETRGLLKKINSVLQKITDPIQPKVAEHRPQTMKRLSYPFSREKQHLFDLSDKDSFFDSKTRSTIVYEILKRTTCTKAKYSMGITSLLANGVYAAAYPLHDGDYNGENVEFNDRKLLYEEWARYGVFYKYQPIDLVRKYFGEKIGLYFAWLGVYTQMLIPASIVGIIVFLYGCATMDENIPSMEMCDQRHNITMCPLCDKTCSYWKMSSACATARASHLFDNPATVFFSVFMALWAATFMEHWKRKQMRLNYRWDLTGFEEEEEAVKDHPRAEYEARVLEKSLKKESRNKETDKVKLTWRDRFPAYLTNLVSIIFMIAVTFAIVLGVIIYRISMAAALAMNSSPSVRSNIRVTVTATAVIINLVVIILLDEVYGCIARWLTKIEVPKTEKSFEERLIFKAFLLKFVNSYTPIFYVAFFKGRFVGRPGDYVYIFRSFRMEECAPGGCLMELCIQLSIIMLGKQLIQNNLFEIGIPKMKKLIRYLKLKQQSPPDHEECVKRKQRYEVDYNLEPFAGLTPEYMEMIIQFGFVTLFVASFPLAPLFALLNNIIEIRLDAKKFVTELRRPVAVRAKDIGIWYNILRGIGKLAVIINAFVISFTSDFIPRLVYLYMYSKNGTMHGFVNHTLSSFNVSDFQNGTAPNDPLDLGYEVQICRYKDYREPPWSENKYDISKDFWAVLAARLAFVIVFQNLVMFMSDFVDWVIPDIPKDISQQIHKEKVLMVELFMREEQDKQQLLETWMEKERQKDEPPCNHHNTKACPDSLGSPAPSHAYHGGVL

| SMILES | % Potentiation @ 3.33 μM Avg | EC50 |
| --- | --- | --- |
| Cc1ccccc1CC(=O)Nc1ccnc(C(=O)NC(C)(C)C)c1 [Example 5.7, N-tert-Butyl-4-[[2-(o-tolyl)acetyl]amino]pyridine-2-carboxamide] | 131% | 1230 nM |
| CC(C)(C#N)NC(=O)c1cc(NC(=O)Cc2cc(F)ccc2O)ccn1 [Example 81, N-(1-Cyano-1-methyl-ethyl)-4-[[2-(5-fluoro-2-hydroxy-phenyl)acetyl]amino] pyridine-2-carboxamide] | 151% | 370 nM |
| CC(C)(C)NC(=O)c1cc(NC(=O)Cc2cc(Cl)c(Br)cc2O)ccn1 [Example 3.4a, 4-[[2-(4-Bromo-5-chloro-2-hydroxy-phenyl)acetyl]amino]-N-tert-butyl-pyridine-2-carboxamide] | 206% | 140 nM |
| CC(C)(C)NC(=O)c1cc(NC(=O)Cc2ccc(F)cc2O)ccn1 [Example 3.2a, N-tert-Butyl-4-[[2-(4-fluoro-2-hydroxy-phenyl)acetyl]amino]pyridine-2-carboxamide] | 116% | 160 nM |
| COCC(C)(C#N)NC(=O)c1cc(NC(=O)Cc2cc(Cl)ccc2O)ccn1 (stereo not drawn) [Example 35.27, 4-[[2-(5-Chloro-2-hydroxy-phenyl)acetyl]amino]-N-(1-cyano-2-methoxy-1-methyl-ethyl)pyridine-2-carboxamide] | 496% | 330 nM |
| CC1(NC(=O)c2cc(NC(=O)Cc3cc(Cl)ccc3O)ccn2)CCC1 [Example 1.6, 4-[[2-(5-Chloro-2-hydroxy-phenyl)acetyl]amino]-N-(1-methylcyclobutyl)pyridine-2-carboxamide] | 255% | 60 nM |
| CC1(NC(=O)c2cc(NC(=O)Cc3ccccc3Cl)ccn2)CC1 [Example 30.8, 4-[[2-(2-Chlorophenyl)acetyl]amino]-N-(1-methylcyclopropyl)pyridine-2-carboxamide] | 121% | 700 nM |
| CC(C)(C)NC(=O)c1cccc(NC(=O)Cc2ccccc2)c1 [Example 4.6, N-tert-Butyl-3-[(2-phenylacetyl)amino]benzamide] | 53% | 3860 nM |
| C[C@](C#N)(CO)NC(=O)c1cc(NC(=O)Cc2cc(Cl)ccc2O)ccn1 (single isomer, unassigned) [Example 46b, 4-[[2-(5-Chloro-2-hydroxy-phenyl)acetyl]amino]-N-[(1S)-1-cyano-2-hydroxy-1-methyl-ethyl]pyridine-2-carboxamide or 4-[[2-(5-chloro-2-hydroxy-phenyl)acetyl]amino]-N-[(1R)-1-cyano-2-hydroxy-1-methyl-ethyl]pyridine-2-carboxamide] | 215% |  |
| C#CC(C)(C)NC(=O)c1cc(NC(=O)Cc2c(C)nn(C(C)C)c2C)ccn1 [Example 79.1, N-(1,1-Dimethylprop-2-ynyl)-4-[[2-(1-isopropyl-3,5-dimethyl-pyrazol-4-yl)acetyl]amino]pyridine-2-carboxamide] | 45% |  |
| CC(C)(NC(=O)c1cc(NC(=O)Cc2cc(Cl)ccc2O)ccn1)c1ccccn1 [Example 35.9, 4-[[2-(5-Chloro-2-hydroxy-phenyl)acetyl]amino]-N-[1-methyl-1-(2-pyridyl)ethyl]pyridine-2-carboxamide] | 455% | 540 nM |
| C#CC(C)(C)NC(=O)c1cc(NC(=O)Cc2ccc(Cl)cc2O)ccn1 [Example 78, 4-[[2-(4-Chloro-2-hydroxy-phenyl)acetyl]amino]-N-(1,1-dimethylprop-2-ynyl)pyridine-2-carboxamide] | 98% | 20 nM |
| CC(C)(C)NC(=O)c1cc(F)cc(NC(=O)Cc2cc(Cl)ccc2O)c1 [Example 18, N-tert-Butyl-3-[[2-(5-chloro-2-hydroxy-phenyl)acetyl]amino]-5-fluoro-benzamide] | 405% | 450 nM |
| CC(C)(C#N)NC(=O)c1cc(NC(=O)Cc2ccccc2Cl)ccn1 [Example 30.3a, 4-[[2-(2-Chlorophenyl)acetyl]amino]-N-(1-cyano-1-methyl-ethyl)pyridine-2-carboxamide] | 221% |  |
| CC(C)(C)NC(=O)c1cc(NC(=O)Cc2ccc(F)c(F)c2)ccn1 [Example 23.6, N-tert-Butyl-4-[[2-(3,4-difluorophenyl)acetyl]amino]pyridine-2-carboxamide] | 108% |  |
| CC(C)(C)NC(=O)c1cccc(NC(=O)Cc2cc(C(F)(F)F)ccc2O)c1 [Example 2.17, N-tert-Butyl-3-[[2-[2-hydroxy-5-(trifluoromethyl)phenyl]acetyl]amino]benzamide] | 172% | 270 nM |
| CC(C)(C)NC(=O)c1nccc(NC(=O)Cc2cc(Cl)ccc2O)c1F [Example 28.1, N-tert-Butyl-4-[[2-(5-chloro-2-hydroxy-phenyl)acetyl]amino]-3-fluoro-pyridine-2-carboxamide] | 68% |  |
| C#CC(C)(C)NC(=O)c1cc(NC(=O)Cc2cc(F)ccc2O)ccn1 [Example 81.3, N-(1,1-Dimethylprop-2-ynyl)-4-[[2-(5-fluoro-2-hydroxy-phenyl)acetyl]amino] pyridine-2-carboxamide] | 129% | 40 nM |

| SMILES | % Potentiation @ 3.33 μM Avg | EC50 |
| --- | --- | --- |
| COc1ccc(F)c(F)c1CC(=O)Nc1cccc(C(=O)NC(C)(C)C)c1 [Example 4.8, N-tert-Butyl-3-[[2-(2,3-difluoro-6-methoxy-phenyl)acetyl]amino]benzamide] | 55% | 2070 nM |
| COC(=O)c1ccc(O)c(CC(=O)Nc2cccc(C(=O)NC(C)(C)C)c2)c1 [Example 2.18, Methyl 3-[2-[3-(tert-butylcarbamoyl)anilino]-2-oxo-ethyl]-4-hydroxy-benzoate] | 118% | 1410 nM |
| CC(C#N)(CO)NC(=O)c1cc(NC(=O)Cc2ccccc2F)ccn1 (stereo not drawn) [Example 60.1, N-(1-Cyano-2-hydroxy-1-methyl-ethyl)-4-[[2-(2-fluorophenyl)acetyl]amino]pyridine-2-carboxamide] | 60% |  |
| CC(C)(C)NC(=O)c1cc(NC(=O)Cc2cc(CN3CCOCC3)ccc2O)ccn1 [Example 70, N-tert-Butyl-4-[[2-[2-hydroxy-5-(morpholinomethyl)phenyl]acetyl]amino]pyridine-2-carboxamide] | 138% |  |
| CC(C)(C)NC(=O)c1cc(NC(=O)Cc2cc(F)cc(F)c2)ccn1 [Example 23.7, N-tert-Butyl-4-[[2-(3,5-difluorophenyl)acetyl]amino]pyridine-2-carboxamide] | 98% |  |
| O=C(Cc1cc(Cl)ccc1O)Nc1ccnc(C(=O)NC2(CCO)CCOCC2)c1 [Example 42, 4-[[2-(5-Chloro-2-hydroxy-phenyl)acetyl]amino]-N-[4-(2-hydroxyethyl)tetrahydropyran-4-yl]pyridine-2-carboxamide] | 143% | 760 nM |
| CC(C)(C)NC(=O)c1cc(NC(=O)Cc2cc(Cl)ccc2O)ncn1 [Example 85, N-tert-Butyl-6-[[2-(5-chloro-2-hydroxy-phenyl)acetyl]amino] pyrimidine-4-carboxamide] | 155% | 350 nM |
| CC(C)(C)NC(=O)c1cc(NC(=O)Cc2cccc(O)c2)ccn1 [Example 3.12b, N-tert-Butyl-4-[[2-(3-hydroxyphenyl)acetyl]amino]pyridine-2-carboxamide] | 143% | 340 nM |
| CC(C)(C)NC(=O)c1cccc(NC(=O)Cc2ccc(C(F)(F)F)cc2O)c1 [Example 2.19, N-tert-Butyl-3-[[2-[2-hydroxy-4-(trifluoromethyl)phenyl]acetyl]amino]benzamide] | 249% | 460 nM |
| COc1ccc(Cl)cc1CC(=O)Nc1cc(C(=O)NC(C)(C)C)ncn1 [Example 82, N-tert-Butyl-6-[[2-(5-chloro-2-methoxy-phenyl)acetyl]amino]pyrimidine-4-carboxamide] | 88% | 720 nM |
| Cc1nc(-c2ccccc2)sc1C(=O)Nc1ccnc(C(=O)NC(C)(C)C#N)c1 [Example 83.28, N-[2-[(1-Cyano-1-methyl-ethyl)carbamoyl]-4-pyridyl]-4-methyl-2-phenyl-thiazole-5-carboxamide] | 20% |  |
| CC(C)(C)NC(=O)c1cc(NC(=O)Cc2ccc3ccccc3c2)ccn1 [Example 5.24, N-tert-Butyl-4-[[2-(2-naphthyl)acetyl]amino]pyridine-2-carboxamide] | 189% | 140 nM |
| CC(C)(C#N)NC(=O)c1cc(NC(=O)c2conc2-c2ccccc2)ccn1 [Example 83.20, N-[2-[(1-Cyano-1-methyl-ethyl)carbamoyl]-4-pyridyl]-3-phenyl-isoxazole-4-carboxamide] | 9% |  |
| CC(C)(C#N)NC(=O)c1cc(NC(=O)c2ccsc2)ccn1 [Example 83, N-(1-Cyano-1-methyl-ethyl)-4-(thiophene-3-carbonylamino)pyridine-2-carboxamide] | 6% |  |
| Cn1nc(C(C)(C)C)cc1C(=O)Nc1ccnc(C(=O)NC(C)(C)C#N)c1 [Example 83.14, 4-[(5-tert-Butyl-2-methyl-pyrazole-3-carbonyl)amino]-N-(1-cyano-1-methyl-ethyl)pyridine-2-carboxamide] | 70% |  |
| CC(C)(C)NC(=O)c1cc(NC(=O)Cc2c(O)c(Br)cc(F)c2Br)ccn1 [Example 3.7a, N-tert-butyl-4-[2-(2,5-dibromo-3-fluoro-6-hydroxyphenyl)acetamido]pyridine-2-carboxamide] | 135% | 280 nM |
| CC(C)(C)NC(=O)c1cc(NC(=O)Cc2cccc(CC#N)c2)ccn1 [Example 68, N-tert-Butyl-4-[[2-[3-(cyanomethyl)phenyl]acetyl]amino]pyridine-2-carboxamide] | 39% |  |
